Assay results published in ChEMBL document CHEMBL3045159, “Computational evaluation and experimental in vitro antibacterial, antifungal and antiviral activity of bis-Schiff bases of isatin and its derivatives” (Med Chem Res, 2013).
≈ marks a conversion by molar mass, not a printed value.

Legend:
Saccharomyces cerevisiae = assay: Antifungal activity against Saccharomyces cerevisiae ATCC 28383; type: functional
Staphylococcus aureus = assay: Antibacterial activity against Staphylococcus aureus CIP 4.83; type: functional
[1] = test system: Respiratory syncytial virus; assay: Antiviral activity against Respiratory syncytial virus infected HeLa cells; type: functional; details: human respiratory syncytial virus
Coxsackievirus B4 [2] = assay: Antiviral activity against Human coxsackievirus B4 infected HeLa cells; type: functional; details: Enterovirus B
[3] = test system: Vesicular stomatitis virus; assay: Antiviral activity against Vesicular stomatitis virus infected HeLa; type: functional
Coxsackievirus B4 [4] = assay: Antiviral activity against Human coxsackievirus B4 infected Vero cells; type: functional; details: Enterovirus B
Punta Toro virus = assay: Antiviral activity against Punta Toro virus infected Vero cells; type: functional
Sindbis virus = assay: Antiviral activity against Sindbis virus infected Vero cells; type: functional
Escherichia coli = assay: Antibacterial activity against Escherichia coli CIP 54127; type: functional
Candida albicans = assay: Antifungal activity against Candida albicans CIP 1180-79; type: functional
[5] = test system: Mammalian orthoreovirus 1; assay: Antiviral activity against Mammalian orthoreovirus 1 infected Vero cells; type: functional
Human respirovirus 3 = assay: Antiviral activity against Human parainfluenza virus 3 infected Vero cells; type: functional
Human alphaherpesvirus 1 [6] = assay: Antiviral activity against thymidine kinase-deficient, acylcovir-resistant Human herpesvirus 1 strain KOS infected in HEL cells; type: functional; details: Human alphaherpesvirus 1, KOS
[7] = test system: Vesicular stomatitis virus; assay: Antiviral activity against Vesicular stomatitis virus infected HEL cells; type: functional
Vaccinia virus = assay: Antiviral activity against Vaccinia virus infected HEL cells; type: functional; details: Orthopoxvirus vaccinia
Human alphaherpesvirus 2 = assay: Antiviral activity against Human herpesvirus 2 strain G infected HEL cells; type: functional; details: Human alphaherpesvirus 2, strain G
Human alphaherpesvirus 1 [8] = assay: Antiviral activity against Human herpesvirus 1 strain KOS infected in HEL cells; type: functional; details: Human alphaherpesvirus 1, KOS
[9] = Cytotoxicity against Homo sapiens (human) HeLa cells; type: cell-based
[10] = Cytotoxicity against Homo sapiens (human) HEL cells; type: cell-based
[11] = Cytotoxicity against Chlorocebus aethiops (African green monkey) Vero cells; type: cell-based; details: chlorocebus sabaeus

SMILES | MIC (Saccharomyces cerevisiae) [µg/mL] | MIC (Staphylococcus aureus) [µg/mL] | MIC [1] [µg/mL] | MIC (Coxsackievirus B4 [2]) [µg/mL] | MIC [3] [µg/mL] | MIC (Coxsackievirus B4 [4]) [µg/mL] | MIC (Punta Toro virus) [µg/mL] | MIC (Sindbis virus) [µg/mL] | MIC (Escherichia coli) [µg/mL] | MIC (Candida albicans) [µg/mL] | MIC [5] [µg/mL] | MIC (Human respirovirus 3) [µg/mL] | MIC (Human alphaherpesvirus 1 [6]) [µg/mL] | MIC [7] [µg/mL] | MIC (Vaccinia virus) [µg/mL] | MIC (Human alphaherpesvirus 2) [µg/mL] | MIC (Human alphaherpesvirus 1 [8]) [µg/mL] | MCC [9] [µg/mL] | MCC [10] [µg/mL] | MCC [11] [µg/mL]
O=C1Nc2ccccc2/C1=N\c1cccc(Cc2cccc(/N=C3/C(=O)Nc4ccccc43)c2)c1 | < 50 | < 50 | > 16 | > 16 | 9.6 (≈ 21 µM) | > 16 | > 16 | > 16 | < 50 | < 50 | > 16 | > 16 | > 16 | > 16 | > 16 | > 16 | > 16 | ≥ 16 | 80 | 80
O=C1Nc2ccccc2/C1=N/c1ccc(C(=O)c2ccc(/N=C3\C(=O)Nc4ccccc43)cc2)cc1 | < 50 | < 50 | > 16 | > 16 | 48 (≈ 102 µM) | > 16 | > 16 | > 16 | < 50 | < 50 | > 16 | > 16 | > 16 | > 16 | > 16 | > 16 | > 16 | 80 | 80 | ≥ 16
O=C1Nc2ccc(F)cc2/C1=N/c1ccc(Cc2ccc(/N=C3\C(=O)Nc4ccc(F)cc43)cc2)cc1 | < 50 | < 50 | > 16 | > 16 | > 16 | > 16 | > 16 | > 16 | < 50 | < 50 | > 16 | > 16 | > 3.2 | > 3.2 | > 3.2 | > 3.2 | > 3.2 | 80 | 16 | ≥ 16
CCc1ccc2c(c1)/C(=N/c1c(CC)cc(Cc3cc(CC)c(/N=C4\C(=O)N(CC)c5ccc(CC)cc54)c(CC)c3Cl)c(Cl)c1CC)C(=O)N2CC | < 50 | < 50 | > 3.2 | > 3.2 | > 3.2 | > 3.2 | > 3.2 | > 3.2 | < 50 | < 50 | > 3.2 | > 3.2 | > 16 | > 16 | > 16 | > 16 | > 16 | 16 | 80 | 16
O=C1Nc2ccccc2/C1=N\c1ccc(Cc2cccc(/N=C3/C(=O)Nc4ccccc43)c2)cc1 | < 50 | < 50 | > 16 | > 16 | 3.2 (≈ 7.01 µM) | > 16 | > 16 | > 16 | < 50 | < 50 | > 16 | > 16 | > 16 | > 16 | > 16 | > 16 | > 16 | ≥ 16 | 80 | 80
Nc1ncnc2c1ncn2C[C@H](O)CO [(S)-DHPA] |  |  | > 500 | > 500 | 500 (≈ 2390 µM) | > 100 |  | > 100 |  |  | 300 (≈ 1430 µM) | > 100 |  |  |  |  |  | > 500 |  | 500
O=C1Nc2ccc(F)cc2/C1=N/c1ccc(Oc2ccc(/N=C3\C(=O)Nc4ccc(F)cc43)cc2)cc1 | < 50 | < 50 | > 16 | > 16 | > 16 | > 8 | > 8 | > 8 | < 50 | < 50 | > 8 | > 8 | > 1.6 | > 1.6 | > 1.6 | > 1.6 | > 1.6 | ≥ 16 | 8 | 40
O=C1/C(=N\c2ccc(Oc3ccc(/N=C4\C(=O)N(Cc5ccccc5)c5ccccc54)cc3)cc2)c2ccccc2N1Cc1ccccc1 | < 50 | < 50 | > 16 | > 16 | > 16 | > 80 | > 80 | > 80 | < 50 | < 50 | > 80 | > 80 | > 80 | > 80 | > 80 | > 80 | > 80 | 80 | 400 | 80
Nc1nc2c(ncn2COCCO)c(=O)[nH]1 [ACYCLOVIR] |  |  |  |  |  |  |  |  |  |  |  |  | 300 (≈ 1330 µM) | > 500 | > 500 | 20 (≈ 88.8 µM) | 2.4 (≈ 10.7 µM) |  | > 500 | 
